Test results taken from patent US7455996B2, “Soybean raffinose synthase and a method for producing raffinose” (priority 1996, dated 2008).

Key:
raffinose synthase [1] = assay: raffinose synthase activity with enzyme inhibitors or metal ions added; assay type: biochemical, cucumber; conditions: final concentration of 1 mM; for Remaining activity (%): with respect to activity when neither inhibitor nor metal ion was added
Method: (§1) The activity of the raffinose synthase was measured by quantitatively determining raffinose produced by the raffinose synthesis reaction by using HPLC (high-performance liquid chromatography). HPLC was performed by using Sugar Analysis System DX500 (CarboPac PA1column, pulsed amperometry detector (produced by DIONEX)).
(§2) For the raffinose synthesis reaction, to a reaction solution prepared to have a composition having the following final concentrations, 10 to 50 μl of a raffinose synthase solution was added to give a volume of 100 μl followed by performing the reaction at 32° C. for 60 minutes.
(§3) After performing the reaction as described above, the reaction was stopped by adding to the reaction solution, ethanol in a volume four times the volume of the reaction solution and heating the solution at 95° C. for 30 seconds. The obtained solution was centrifuged to obtain a supernatant and the supernatant was then dried up under a reduced pressure. After that, an obtained residue was dissolved in distilled water. Raffinose in the reaction product was quantitatively determined by using the sugar analysis system to estimate the raffinose synthase activity.
Various enzyme inhibitors or metal ions were added to the reaction solution of the purified raffinose synthase to give a final concentration of 1 mM respectively, and the raffinose synthase activity was measured in the same manner as described above.

raffinose synthase [2] = assay: inhibition of raffinose synthase activity by myo-inositol; assay type: biochemical, cucumber; conditions: myo-inositol added at various concentrations (FIG. 5)
Method: as §1, §2, §3
Investigation was made for inhibition by myo-inositol as the reaction product of the raffinose synthesis reaction. To the reaction solution, myo-inositol was added at various concentrations, and the raffinose synthase activity was measured. […]

[3] = optimum reaction temperature of raffinose synthase; assay type: biochemical, cucumber; conditions: measured at 28 to 52° C.
Method: as §1, §2, §3
The raffinose synthase activity was measured under various temperature conditions (28° C., 32° C., 36° C., 40° C., 44° C., 48° C., and 52° C.) in accordance with the method for measuring the raffinose synthase activity described above. […]

[4] = raffinose synthase activity of purification fractions (HPLC determination of raffinose); assay type: biochemical, cucumber; conditions: purified active fraction after hydroxyapatite rechromatography
Method: as §1, §2, §3
The amount of protein contained in the active fraction was about 200 μg. The total activity was 5700 nmol/hour, and the specific activity per protein was about 28 μmol/hour/mg. […]

[5] = stable pH of raffinose synthase; assay type: physicochemical, cucumber; conditions: fraction from anion exchange chromatography (2); incubated 4 hours at 4° C.
Method: The raffinose synthase fraction obtained by the anion exchange chromatography (2) described above was incubated for 4 hours at 4° C. in 50 mM Bis-Tris-HCl buffer (pH 5 to 8.0, containing 0.5 mM DTT) or 20 mM Tris-HCl buffer (pH 7 to 8.0, containing 0.5 mM DTT), and then the raffinose synthase activity was measured. […] The raffinose synthase activity was confirmed after the incubation under any of the incubation conditions. Especially, the enzyme was stable in a range of pH 5 to 7.5.

[6] = stable temperature of raffinose synthase; assay type: physicochemical, cucumber; conditions: fraction from anion exchange chromatography (2); 60 minutes at 28° C. to 40° C., pH 7
Method: The raffinose synthase fraction obtained by the anion exchange chromatography (2) described above was incubated in 20 mM Tris-HCl buffer (pH 7, containing 0.5 mM DTT) for 60 minutes at 28° C., 32° C., 37° C., or 40° C., and then the raffinose synthase activity was measured.

[7] = optimum reaction pH of raffinose synthase; assay type: biochemical, cucumber; conditions: pH 4 to 11, various buffers
Method: as §1, §2, §3
The raffinose synthase activity was measured under various pH conditions (pH 4 to 11) in accordance with the method for measuring the raffinose synthase activity described above. […]

Molecule	inhibiting effect on the enzyme activity (raffinose synthase [1])	Remaining activity (%) (raffinose synthase [1])	also measured
[Ca+2].[Cl-].[Cl-] [CaCl2]	scarcely observed	115	
[Cl][Cu][Cl] [CuCl2]	scarcely observed	101	
NC(=O)CI [Iodoacetoamide, Iodoacetamide]	remarkably inhibited	0	
[Cl-].[Cl-].[Mg+2] [MgCl2]	scarcely observed	96	
[Cl][Mn][Cl] [MnCl2]	exhibited the inhibiting effect	32	
CCN1C(=O)C=CC1=O [N-ethylmaleimide]	remarkably inhibited	40	
[Cl][Ni][Cl] [NiCl2]	exhibited the inhibiting effect	68	
[Cl-].[Cl-].[Zn+2] [ZnCl2]	exhibited the inhibiting effect	42	
O[C@H]1[C@H](O)[C@@H](O)[C@H](O)[C@@H](O)[C@H]1O [myo-inositol]			inhibition of the enzyme activity by myo-inositol (raffinose synthase [2]): inhibited
raffinose synthase: raffinose synthase purified from cucumber leaf vein tissues, amino acid sequence SEQ ID NO: 5 (protein, listed as Cucumis sativus) MAPSFKNGGSNVVSFDGLNDMSSPFAIDGSDFTVNGHSFLSDVPENIVASPSPYTSIDKSPVSVGCFVGFDASEPDSRHVVSIGKLKDIRFMSIFRFKVWWTTHWVGRNGGDLESETQIVILEKSDSGRPYVFLLPIVEGPFRTSIQPGDDDFVDVCVESGSSKVVDASFRSMLYLHAGDDPFALVKEAMKIVRTHLGTFRLLEEKTPPGIVDKFGWCTWDAFYLTVHPQGVIEGVRHLVDGGCPPGLVLIDDGWQSIGHDSDPITKEGMNQTVAGEQMPCRLLKFQENYKFRDYVNPKATGPRAGQKGMKAFIDELKGEFKTVEHVYVWHALCGYWGGLRPQVPGLPEARVIQPVLSPGLQMTMEDLAVDKIVLHKVGLVPPEKAEEMYEGLHAHLEKVGIDGVKIDVIHLLEMLCEDYGGRVDLAKAYYKAMTKSINKHFKGNGVIASMEHCNDFMFLGTEAISLGRVGDDFWCTDPSGDPNGTFWLQGCHMVHCANDSLWMGNFIHPDWDMFQSTHPCAAFHAASRAISGGPIYVSDSVGKHNFDLLKKLVLPDGSILRSEYYALPTRDCLFEDPLHNGETMLKIWNLNKFTGVIGAFNCQGGGWCRETRRNQCFSQYSKRVTSKTNPKDIEWHSGENPISIEGVKTFALYLYQAKKLILSKPSQDLDIALDPFEFELITVSPVTKLIQTSLHFAPIGLVNMLNTSGAIQSVDYDDDLSSVEIGVKGCGEMRVFASKKPRACRIDGEDVGFKYDQDQMVVVQVPWPIDSSSGGISVIEYLF			optimum reaction temperature [3]: 35 to 40 °C; temperature range in which activity was exhibited [3]: 25 to 42 °C; specific activity per protein [4]: about 28 μmol/hour/mg; stable pH range [5]: 5 to 7.5 pH; activity after incubation relative to non-incubated control [6]: 80% to 100; optimum reaction pH [7]: 6 to 8 pH; pH range in which activity was exhibited [7]: 5 to 10 pH
